In patent US20260007681A1, “INDOLE DERIVATIVES AS ESTROGEN RECEPTOR DEGRADERS” (REGENTS OF THE UNIVERSITY OF MICHIGAN, priority 2022, published 2026):

Biological target: ER (Homo sapiens (Human), UniProt P03372)
Test: Western blot analysis (Compounds B1-B278)
Format: cell-based
Details: ER degradation by traditional Western blot; DC50 classes
Description: Western Blot Analysis. The cells that are treated with the compounds are lysed in Radioimmunoprecipitation Assay Protein Lysis and Extraction Buffer (e.g., 25 mmol/L Tris.HCl, pH 7.6, 150 mmol/L NaCl, 1% Nonidet P-40, 1% sodium deoxycholate, and 0.1% sodium dodecyl sulfate) containing proteinase inhibitor cocktail. Equal amounts of total protein are electrophoresed through 10% SDS-polyacrylamide gels after determination of protein concentration by BCA assay. The separated protein bands are transferred onto PVDF membranes and blotted against different antibodies. The blots are scanned, and the band intensities are quantified (e.g., by using GelQuant.NET software provided by biochemlabsolutions.com). The relative mean intensity of target proteins is expressed after normalization to the intensity of glyceraldehyde-3-phosphate dehydrogenase bands.
Western Blot Analysis. Western blot analysis was performed essentially as described previously. The cells treated with indicated compounds were lysed in Radioimmunoprecipitation Assay Protein Lysis and Extraction Buffer (25 mmol/L Tris.HCl, pH 7.6, 150 mmol/L NaCl, 1% Nonidet P-40, 1% sodium deoxycholate, and 0.1% sodium dodecyl sulfate) containing proteinase inhibitor cocktail (Roche Diagnostics, Mannheim, Germany). Equal amounts of total protein were electrophoresed through 10% SDS-polyacrylamide gels after determination of protein concentration by BCA assay (Fisher Scientific, Pittsburgh, PA). The separated protein bands were transferred onto PVDF membranes (GE Healthcare Life Sciences, Marlborough, MA) and blotted against different antibodies, as indicated. The blots were scanned, and the band intensities were quantified using GelQuant.NET software provided by biochemlabsolutions.com. The relative mean intensity of target proteins was expressed after normalization to the intensity of glyceraldehyde-3-phosphate dehydrogenase bands.

ER, sequence (P03372 whole entry): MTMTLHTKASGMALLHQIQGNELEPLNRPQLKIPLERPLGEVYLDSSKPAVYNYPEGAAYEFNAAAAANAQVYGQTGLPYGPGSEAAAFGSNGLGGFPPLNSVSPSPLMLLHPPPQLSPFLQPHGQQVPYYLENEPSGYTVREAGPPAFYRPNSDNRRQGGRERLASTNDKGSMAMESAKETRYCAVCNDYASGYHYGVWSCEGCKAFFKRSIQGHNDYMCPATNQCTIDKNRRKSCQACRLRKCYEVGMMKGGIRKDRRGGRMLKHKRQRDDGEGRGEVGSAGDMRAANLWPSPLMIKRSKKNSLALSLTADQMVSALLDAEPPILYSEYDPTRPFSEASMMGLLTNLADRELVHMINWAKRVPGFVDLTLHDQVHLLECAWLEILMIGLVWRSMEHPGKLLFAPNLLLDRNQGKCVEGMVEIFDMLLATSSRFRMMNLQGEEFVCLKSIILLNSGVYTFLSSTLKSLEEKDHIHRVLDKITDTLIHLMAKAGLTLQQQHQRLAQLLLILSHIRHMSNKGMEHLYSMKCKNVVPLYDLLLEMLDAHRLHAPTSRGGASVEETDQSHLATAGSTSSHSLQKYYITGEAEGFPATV

C[C@@H]1Cc2c([nH]c3ccccc23)[C@@H](c2c(F)cc(N3CCC(N4CCC(CC(=O)N5Cc6cc7c(cc6C5)C(=O)N(C5CCC(=O)NC5=O)C7=O)CC4)CC3)cc2F)N1CC(F)F (stereo partly drawn) [Compound B33, 6-(2-(1′-(4-((1R,3R)-2-(2,2-difluoroethyl)-3-methyl-2,3,4,9-tetrahydro-1H-pyrido[3,4-b]indol-1-yl)-3,5-difluorophenyl)-[1,4′-bipiperidin]-4-yl)acetyl)-2-(2,6-dioxopiperidin-3-yl)-6,7-dihydropyrrolo[3,4-f]isoindole-1,3(2H,5H)-dione]
Traditional Western Degradation Potency: A (“A”: <10 nM)

C[C@@H]1Cc2c([nH]c3ccccc23)[C@@H](c2c(F)cc(N3CCC(N4CCC(CC(=O)N5Cc6cc7c(cc6C5)C(=O)N(C5CCC(=O)NC5=O)C7)CC4)CC3)cc2F)N1CC(F)F (stereo partly drawn) [Compound B34, 3-(6-(2-(1′-(4-((1R,3R)-2-(2,2-difluoroethyl)-3-methyl-2,3,4,9-tetrahydro-1H-pyrido[3,4-b]indol-1-yl)-3,5-difluorophenyl)-[1,4′-bipiperidin]-4-yl)acetyl)-1-oxo-3,5,6,7-tetrahydropyrrolo[3,4-f]isoindol-2(1H)-yl)piperidine-2,6-dione]
Traditional Western Degradation Potency: A (“A”: <10 nM)

C[C@@H]1Cc2c([nH]c3ccccc23)[C@@H](c2c(F)cc(N3CCC(N4CCN(CC(=O)N5Cc6cc7c(cc6C5)C(=O)N(C5CCC(=O)NC5=O)C7=O)CC4)CC3)cc2F)N1CC(F)F (stereo partly drawn) [Compound B35, 6-(2-(4-(1-(4-((1R,3R)-2-(2,2-difluoroethyl)-3-methyl-2,3,4,9-tetrahydro-1H-pyrido[3,4-b]indol-1-yl)-3,5-difluorophenyl)piperidin-4-yl)piperazin-1-yl)acetyl)-2-(2,6-dioxopiperidin-3-yl)-6,7-dihydropyrrolo[3,4-f]isoindole-1,3(2H,5H)-dione]
Traditional Western Degradation Potency: A (“A”: <10 nM)

C[C@@H]1Cc2c([nH]c3ccccc23)[C@@H](c2c(F)cc(N3CCC(N4CCN(CC(=O)N5Cc6cc7c(cc6C5)C(=O)N(C5CCC(=O)NC5=O)C7)CC4)CC3)cc2F)N1CC(F)F (stereo partly drawn) [Compound B36, 3-(6-(2-(4-(1-(4-((1R,3R)-2-(2,2-difluoroethyl)-3-methyl-2,3,4,9-tetrahydro-1H-pyrido[3,4-b]indol-1-yl)-3,5-difluorophenyl)piperidin-4-yl)piperazin-1-yl)acetyl)-1-oxo-3,5,6,7-tetrahydropyrrolo[3,4-f]isoindol-2(1H)-yl)piperidine-2,6-dione]
Traditional Western Degradation Potency: A (“A”: <10 nM)

C[C@@H]1Cc2c([nH]c3ccccc23)[C@@H](c2c(F)cc(N3CC4(CCN(CC(=O)N5Cc6cc7c(cc6C5)C(=O)N(C5CCC(=O)NC5=O)C7=O)CC4)C3)cc2F)N1CC(F)F (stereo partly drawn) [Compound B37, 6-(2-(2-(4-((1R,3R)-2-(2,2-difluoroethyl)-3-methyl-2,3,4,9-tetrahydro-1H-pyrido[3,4-b]indol-1-yl)-3,5-difluorophenyl)-2,7-diazaspiro[3.5]nonan-7-yl)acetyl)-2-(2,6-dioxopiperidin-3-yl)-6,7-dihydropyrrolo[3,4-f]isoindole-1,3(2H,5H)-dione]
Traditional Western Degradation Potency: B (“B”: 10-100 nM)

C[C@@H]1Cc2c([nH]c3ccccc23)[C@@H](c2c(F)cc(N3CC4(CCN(CC(=O)N5Cc6cc7c(cc6C5)C(=O)N(C5CCC(=O)NC5=O)C7)CC4)C3)cc2F)N1CC(F)F (stereo partly drawn) [Compound B38, 3-(6-(2-(2-(4-((1R,3R)-2-(2,2-difluoroethyl)-3-methyl-2,3,4,9-tetrahydro-1H-pyrido[3,4-b]indol-1-yl)-3,5-difluorophenyl)-2,7-diazaspiro[3.5]nonan-7-yl)acetyl)-1-oxo-3,5,6,7-tetrahydropyrrolo[3,4-f]isoindol-2(1H)-yl)piperidine-2,6-dione]
Traditional Western Degradation Potency: A (“A”: <10 nM)

C[C@@H]1Cc2c([nH]c3ccccc23)[C@@H](c2c(F)cc(N3CCC4(CC3)CC(C(=O)N3CCC(CN5Cc6cc7c(cc6C5)C(=O)N(C5CCC(=O)NC5=O)C7=O)CC3)C4)cc2F)N1CC(F)F (stereo partly drawn) [Compound B39, 6-((1-(7-(4-((1R,3R)-2-(2,2-difluoroethyl)-3-methyl-2,3,4,9-tetrahydro-1H-pyrido[3,4-b]indol-1-yl)-3,5-difluorophenyl)-7-azaspiro[3.5]nonane-2-carbonyl)piperidin-4-yl)methyl)-2-(2,6-dioxopiperidin-3-yl)-6,7-dihydropyrrolo[3,4-f]isoindole-1,3(2H,5H)-dione]
Traditional Western Degradation Potency: B (“B”: 10-100 nM)

C[C@@H]1Cc2c([nH]c3ccccc23)[C@@H](c2c(F)cc(N3CCC4(CC3)CC(C(=O)N3CCC(N5Cc6cc7c(cc6C5)C(=O)N(C5CCC(=O)NC5=O)C7=O)CC3)C4)cc2F)N1CC(F)F (stereo partly drawn) [Compound B40, 6-(1-(7-(4-((1R,3R)-2-(2,2-difluoroethyl)-3-methyl-2,3,4,9-tetrahydro-1H-pyrido[3,4-b]indol-1-yl)-3,5-difluorophenyl)-7-azaspiro[3.5]nonane-2-carbonyl)piperidin-4-yl)-2-(2,6-dioxopiperidin-3-yl)-6,7-dihydropyrrolo[3,4-f]isoindole-1,3(2H,5H)-dione]
Traditional Western Degradation Potency: A (“A”: <10 nM)

C[C@@H]1Cc2c([nH]c3ccccc23)[C@@H](c2c(F)cc(N3CCC4(CC3)CC(C(=O)N3CCC(N5Cc6cc7c(cc6C5)C(=O)N(C5CCC(=O)NC5=O)C7)CC3)C4)cc2F)N1CC(F)F (stereo partly drawn) [Compound B41, 3-(6-(1-(7-(4-((1R,3R)-2-(2,2-difluoroethyl)-3-methyl-2,3,4,9-tetrahydro-1H-pyrido[3,4-b]indol-1-yl)-3,5-difluorophenyl)-7-azaspiro[3.5]nonane-2-carbonyl)piperidin-4-yl)-1-oxo-3,5,6,7-tetrahydropyrrolo[3,4-f]isoindol-2(1H)-yl)piperidine-2,6-dione]
Traditional Western Degradation Potency: A (“A”: <10 nM)

C[C@@H]1Cc2c([nH]c3ccccc23)[C@@H](c2c(F)cc(N3CC(CC(=O)N4Cc5cc6c(cc5C4)C(=O)N(C4CCC(=O)NC4=O)C6)C3)cc2F)N1CC(F)F (stereo partly drawn) [Compound B42, 3-(6-(2-(1-(4-((1R,3R)-2-(2,2-difluoroethyl)-3-methyl-2,3,4,9-tetrahydro-1H-pyrido[3,4-b]indol-1-yl)-3,5-difluorophenyl)azetidin-3-yl)acetyl)-1-oxo-3,5,6,7-tetrahydropyrrolo[3,4-f]isoindol-2(1H)-yl)piperidine-2,6-dione]
Traditional Western Degradation Potency: C (“C”: >100 nM)

C[C@@H]1Cc2c([nH]c3ccccc23)[C@@H](c2c(F)cc(N3CC(CC(=O)N4CC(N5Cc6cc7c(cc6C5)C(=O)N(C5CCC(=O)NC5=O)C7)C4)C3)cc2F)N1CC(F)F (stereo partly drawn) [Compound B43, 3-(6-(1-(2-(1-(4-((1R,3R)-2-(2,2-difluoroethyl)-3-methyl-2,3,4,9-tetrahydro-1H-pyrido[3,4-b]indol-1-yl)-3,5-difluorophenyl)azetidin-3-yl)acetyl)azetidin-3-yl)-1-oxo-3,5,6,7-tetrahydropyrrolo[3,4-f]isoindol-2(1H)-yl)piperidine-2,6-dione]
Traditional Western Degradation Potency: B (“B”: 10-100 nM)

C[C@@H]1Cc2c([nH]c3ccccc23)[C@@H](c2c(F)cc(N3CCC(CC(=O)N4Cc5cc6c(cc5C4)C(=O)N(C4CCC(=O)NC4=O)C6)CC3)cc2F)N1CC(F)F (stereo partly drawn) [Compound B44, 3-(6-(2-(1-(4-((1R,3R)-2-(2,2-difluoroethyl)-3-methyl-2,3,4,9-tetrahydro-1H-pyrido[3,4-b]indol-1-yl)-3,5-difluorophenyl)piperidin-4-yl)acetyl)-1-oxo-3,5,6,7-tetrahydropyrrolo[3,4-f]isoindol-2(1H)-yl)piperidine-2,6-dione]
Traditional Western Degradation Potency: C (“C”: >100 nM)

C[C@@H]1Cc2c([nH]c3ccccc23)[C@@H](c2c(F)cc(N3CC4(CCCN(CC(=O)N5Cc6cc7c(cc6C5)C(=O)N(C5CCC(=O)NC5=O)C7=O)C4)C3)cc2F)N1CC(F)F (stereo partly drawn) [Compound B45, 6-(2-(2-(4-((1R,3R)-2-(2,2-difluoroethyl)-3-methyl-2,3,4,9-tetrahydro-1H-pyrido[3,4-b]indol-1-yl)-3,5-difluorophenyl)-2,6-diazaspiro[3.5]nonan-6-yl)acetyl)-2-(2,6-dioxopiperidin-3-yl)-6,7-dihydropyrrolo[3,4-f]isoindole-1,3(2H,5H)-dione]
Traditional Western Degradation Potency: C (“C”: >100 nM)

C[C@@H]1Cc2c([nH]c3ccccc23)[C@@H](c2c(F)cc(N3CC4(CCCN(CC(=O)N5Cc6cc7c(cc6C5)C(=O)N(C5CCC(=O)NC5=O)C7)C4)C3)cc2F)N1CC(F)F (stereo partly drawn) [Compound B46, 3-(6-(2-(2-(4-((1R,3R)-2-(2,2-difluoroethyl)-3-methyl-2,3,4,9-tetrahydro-1H-pyrido[3,4-b]indol-1-yl)-3,5-difluorophenyl)-2,6-diazaspiro[3.5]nonan-6-yl)acetyl)-1-oxo-3,5,6,7-tetrahydropyrrolo[3,4-f]isoindol-2(1H)-yl)piperidine-2,6-dione]
Traditional Western Degradation Potency: B (“B”: 10-100 nM)
